Test results: the NIST ThermoML archive (doi:10.1021/acs.jced.7b00564)

Test: xn = mol fraction of the nth substance listed
Conditions: Gas, isochoric method

F/C=C/C(F)(F)F [trans-1,3,3,3-tetrafluoropropene] + CC(C)C
Conditions | specific volume [m3/kg]
303.15 K, 259.6 kPa, x2 = 0.516 | 0.1062
303.15 K, 267.9 kPa, x2 = 0.29 | 0.0895
303.15 K, 304.9 kPa, x2 = 0.685 | 0.1004
303.15 K, 305.5 kPa, x2 = 0.428 | 0.0844
303.15 K, 321 kPa, x2 = 0.612 | 0.089
303.15 K, 367.4 kPa, x2 = 0.755 | 0.0856
308.15 K, 264.5 kPa, x2 = 0.516 | 0.1062
308.15 K, 273 kPa, x2 = 0.29 | 0.0895
308.15 K, 310.7 kPa, x2 = 0.685 | 0.1004
308.15 K, 311.3 kPa, x2 = 0.428 | 0.0844
308.15 K, 327.2 kPa, x2 = 0.612 | 0.089
308.15 K, 374.9 kPa, x2 = 0.755 | 0.0856
313.15 K, 269.2 kPa, x2 = 0.516 | 0.1062
313.15 K, 277.9 kPa, x2 = 0.29 | 0.0896
313.15 K, 316.5 kPa, x2 = 0.685 | 0.1005
313.15 K, 317.1 kPa, x2 = 0.428 | 0.0844
313.15 K, 333.4 kPa, x2 = 0.612 | 0.0891
313.15 K, 382.2 kPa, x2 = 0.755 | 0.0857
318.15 K, 274 kPa, x2 = 0.516 | 0.1063
318.15 K, 282.8 kPa, x2 = 0.29 | 0.0896
318.15 K, 322.2 kPa, x2 = 0.685 | 0.1005
318.15 K, 322.8 kPa, x2 = 0.428 | 0.0845
318.15 K, 339.5 kPa, x2 = 0.612 | 0.0891
318.15 K, 389.5 kPa, x2 = 0.755 | 0.0857
323.15 K, 278.8 kPa, x2 = 0.516 | 0.1063
323.15 K, 287.8 kPa, x2 = 0.29 | 0.0896
323.15 K, 328 kPa, x2 = 0.685 | 0.1005
323.15 K, 328.5 kPa, x2 = 0.428 | 0.0845
323.15 K, 345.6 kPa, x2 = 0.612 | 0.0891
323.15 K, 396.8 kPa, x2 = 0.755 | 0.0857
328.15 K, 283.5 kPa, x2 = 0.516 | 0.1063
328.15 K, 292.7 kPa, x2 = 0.29 | 0.0896
328.15 K, 333.7 kPa, x2 = 0.685 | 0.1005
328.15 K, 334.2 kPa, x2 = 0.428 | 0.0845
328.15 K, 351.7 kPa, x2 = 0.612 | 0.0891
328.15 K, 404 kPa, x2 = 0.755 | 0.0857
333.15 K, 288.2 kPa, x2 = 0.516 | 0.1063
333.15 K, 297.6 kPa, x2 = 0.29 | 0.0896
333.15 K, 339.5 kPa, x2 = 0.685 | 0.1005
333.15 K, 339.9 kPa, x2 = 0.428 | 0.0845
333.15 K, 357.8 kPa, x2 = 0.612 | 0.0891
333.15 K, 411.2 kPa, x2 = 0.755 | 0.0857
338.15 K, 292.9 kPa, x2 = 0.516 | 0.1064
338.15 K, 302.5 kPa, x2 = 0.29 | 0.0897
338.15 K, 345.1 kPa, x2 = 0.685 | 0.1006
338.15 K, 345.6 kPa, x2 = 0.428 | 0.0845
338.15 K, 363.8 kPa, x2 = 0.612 | 0.0892
338.15 K, 418.3 kPa, x2 = 0.755 | 0.0857
343.15 K, 297.6 kPa, x2 = 0.516 | 0.1064
343.15 K, 307.4 kPa, x2 = 0.29 | 0.0897
343.15 K, 350.8 kPa, x2 = 0.685 | 0.1006
343.15 K, 351.2 kPa, x2 = 0.428 | 0.0846
343.15 K, 369.8 kPa, x2 = 0.612 | 0.0892
343.15 K, 425.4 kPa, x2 = 0.755 | 0.0858
348.15 K, 302.3 kPa, x2 = 0.516 | 0.1064
348.15 K, 312.2 kPa, x2 = 0.29 | 0.0897
348.15 K, 356.5 kPa, x2 = 0.685 | 0.1006
348.15 K, 356.9 kPa, x2 = 0.428 | 0.0846
348.15 K, 375.8 kPa, x2 = 0.612 | 0.0892
348.15 K, 432.4 kPa, x2 = 0.755 | 0.0858
353.15 K, 307 kPa, x2 = 0.516 | 0.1064
353.15 K, 317.1 kPa, x2 = 0.29 | 0.0897
353.15 K, 362.1 kPa, x2 = 0.685 | 0.1006
353.15 K, 362.6 kPa, x2 = 0.428 | 0.0846
353.15 K, 381.8 kPa, x2 = 0.612 | 0.0892
353.15 K, 439.4 kPa, x2 = 0.755 | 0.0858
358.15 K, 311.7 kPa, x2 = 0.516 | 0.1064
358.15 K, 321.9 kPa, x2 = 0.29 | 0.0897
358.15 K, 367.7 kPa, x2 = 0.685 | 0.1007
358.15 K, 368.2 kPa, x2 = 0.428 | 0.0846
358.15 K, 387.8 kPa, x2 = 0.612 | 0.0892
358.15 K, 446.5 kPa, x2 = 0.755 | 0.0858
363.15 K, 316.4 kPa, x2 = 0.516 | 0.1065
363.15 K, 326.8 kPa, x2 = 0.29 | 0.0898
363.15 K, 373.3 kPa, x2 = 0.685 | 0.1007
363.15 K, 373.9 kPa, x2 = 0.428 | 0.0846
363.15 K, 393.7 kPa, x2 = 0.612 | 0.0892
363.15 K, 453.5 kPa, x2 = 0.755 | 0.0858
368.15 K, 321.1 kPa, x2 = 0.516 | 0.1065
368.15 K, 331.6 kPa, x2 = 0.29 | 0.0898
368.15 K, 379 kPa, x2 = 0.685 | 0.1007
368.15 K, 379.5 kPa, x2 = 0.428 | 0.0846
368.15 K, 399.7 kPa, x2 = 0.612 | 0.0893
368.15 K, 460.5 kPa, x2 = 0.755 | 0.0859
373.15 K, 325.7 kPa, x2 = 0.516 | 0.1065
373.15 K, 336.5 kPa, x2 = 0.29 | 0.0898
373.15 K, 384.7 kPa, x2 = 0.685 | 0.1007
373.15 K, 385.1 kPa, x2 = 0.428 | 0.0847
373.15 K, 405.6 kPa, x2 = 0.612 | 0.0893
373.15 K, 467.6 kPa, x2 = 0.755 | 0.0859
378.15 K, 330.4 kPa, x2 = 0.516 | 0.1065
378.15 K, 341.4 kPa, x2 = 0.29 | 0.0898
378.15 K, 390.3 kPa, x2 = 0.685 | 0.1007
378.15 K, 390.7 kPa, x2 = 0.428 | 0.0847
378.15 K, 411.7 kPa, x2 = 0.612 | 0.0893
378.15 K, 474.5 kPa, x2 = 0.755 | 0.0859
383.15 K, 335.1 kPa, x2 = 0.516 | 0.1066
383.15 K, 346.2 kPa, x2 = 0.29 | 0.0898
383.15 K, 395.9 kPa, x2 = 0.685 | 0.1008
383.15 K, 396.3 kPa, x2 = 0.428 | 0.0847
383.15 K, 417.6 kPa, x2 = 0.612 | 0.0893
383.15 K, 481.6 kPa, x2 = 0.755 | 0.0859
